Data taken from PubChem BioAssay (NCI).
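How tested: cells in 96-well plates exposed to compound for 48 hours at five concentrations. At the GI50, growth is halved. TGI: concentration producing complete growth inhibition.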

How the values were obtained:
Assay in all cases: inhibition of tumour cell growth, NCI panel, 48 h
786-0 renal = tested on: 786-0 renal
ACHN renal = tested on: ACHN renal
BT-549 breast = tested on: BT-549 breast
CAKI-1 renal = tested on: CAKI-1 renal
COLO 205 colon = tested on: COLO 205 colon
DU-145 prostate = tested on: DU-145 prostate
EKVX NSCLC = tested on: EKVX NSCLC
HCC-2998 colon = tested on: HCC-2998 colon
HCT-116 colon = tested on: HCT-116 colon
HCT-15 colon = tested on: HCT-15 colon
HOP-92 NSCLC = tested on: HOP-92 NSCLC
HS 578T breast = tested on: HS 578T breast
HT29 colon = tested on: HT29 colon
IGROV1 ovarian = tested on: IGROV1 ovarian
K-562 leukemia = tested on: K-562 leukemia
M14 melanoma = tested on: M14 melanoma
MALME-3M melanoma = tested on: MALME-3M melanoma
MCF7 breast = tested on: MCF7 breast
MDA-MB-231 breast = tested on: MDA-MB-231 breast
MDA-MB-435 = tested on: MDA-MB-435
MOLT-4 leukemia = tested on: MOLT-4 leukemia
NCI-H226 lung = tested on: NCI-H226 lung
NCI-H23 lung = tested on: NCI-H23 lung
NCI-H460 lung = tested on: NCI-H460 lung
NCI-H522 lung = tested on: NCI-H522 lung
NCI/ADR-RES ovarian = tested on: NCI/ADR-RES ovarian
OVCAR-4 ovarian = tested on: OVCAR-4 ovarian
OVCAR-5 ovarian = tested on: OVCAR-5 ovarian
OVCAR-8 ovarian = tested on: OVCAR-8 ovarian
PC-3 prostate = tested on: PC-3 prostate
RPMI-8226 leukemia = tested on: RPMI-8226 leukemia
SF-268 CNS = tested on: SF-268 CNS
SF-295 CNS = tested on: SF-295 CNS
SF-539 CNS = tested on: SF-539 CNS
SK-MEL-2 melanoma = tested on: SK-MEL-2 melanoma
SK-MEL-28 melanoma = tested on: SK-MEL-28 melanoma
SK-MEL-5 melanoma = tested on: SK-MEL-5 melanoma
SK-OV-3 ovarian = tested on: SK-OV-3 ovarian
SN12C renal = tested on: SN12C renal
SNB-19 CNS = tested on: SNB-19 CNS
SNB-75 CNS = tested on: SNB-75 CNS
SW-620 colon = tested on: SW-620 colon
T-47D breast = tested on: T-47D breast
TK-10 renal = tested on: TK-10 renal
U251 CNS = tested on: U251 CNS
UACC-257 melanoma = tested on: UACC-257 melanoma
UACC-62 melanoma = tested on: UACC-62 melanoma
UO-31 renal = tested on: UO-31 renal

Compound: Cn1c2ccccc2c2c(Nc3ccccc3)c3ccccc3nc21
- GI50 (786-0 renal): 17.3 µM
- TGI (786-0 renal): 41.8 µM
- GI50 (ACHN renal): 23 µM
- TGI (ACHN renal): 65.5 µM
- GI50 (BT-549 breast): 21.3 µM
- TGI (BT-549 breast): 47.8 µM
- GI50 (CAKI-1 renal): 16.7 µM
- TGI (CAKI-1 renal): 38.7 µM
- GI50 (COLO 205 colon): 59 µM
- TGI (COLO 205 colon): > 100 µM
- GI50 (DU-145 prostate): 9.35 µM
- TGI (DU-145 prostate): 50.4 µM
- GI50 (EKVX NSCLC): 14.3 µM
- TGI (EKVX NSCLC): 51.1 µM
- GI50 (HCC-2998 colon): 40.9 µM
- TGI (HCC-2998 colon): > 100 µM
- GI50 (HCT-116 colon): 13.2 µM
- TGI (HCT-116 colon): 36.1 µM
- GI50 (HCT-15 colon): 14.1 µM
- TGI (HCT-15 colon): 60.5 µM
- GI50 (HOP-92 NSCLC): 13.9 µM
- TGI (HOP-92 NSCLC): 56.5 µM
- GI50 (HS 578T breast): 18.2 µM
- TGI (HS 578T breast): 60 µM
- GI50 (HT29 colon): 5.66 µM
- TGI (HT29 colon): 60.7 µM
- GI50 (IGROV1 ovarian): 61.3 µM
- TGI (IGROV1 ovarian): > 100 µM
- GI50 (K-562 leukemia): 5.11 µM
- TGI (K-562 leukemia): > 100 µM
- GI50 (M14 melanoma): 15.9 µM
- TGI (M14 melanoma): 33.3 µM
- GI50 (MALME-3M melanoma): 15.4 µM
- TGI (MALME-3M melanoma): 33.9 µM
- GI50 (MCF7 breast): 5.29 µM
- TGI (MCF7 breast): 25.4 µM
- GI50 (MDA-MB-231 breast): 2.75 µM
- TGI (MDA-MB-231 breast): 22.9 µM
- GI50 (MDA-MB-435): 2.7 µM
- TGI (MDA-MB-435): 6.85 µM
- GI50 (MOLT-4 leukemia): 7.89 µM
- TGI (MOLT-4 leukemia): > 100 µM
- GI50 (NCI-H226 lung): 16.4 µM
- TGI (NCI-H226 lung): 46.4 µM
- GI50 (NCI-H23 lung): 31.4 µM
- TGI (NCI-H23 lung): 67.4 µM
- GI50 (NCI-H460 lung): 17.5 µM
- TGI (NCI-H460 lung): 41.1 µM
- GI50 (NCI-H522 lung): 45.6 µM
- TGI (NCI-H522 lung): > 100 µM
- GI50 (NCI/ADR-RES ovarian): 54.1 µM
- TGI (NCI/ADR-RES ovarian): > 100 µM
- GI50 (OVCAR-4 ovarian): 21.1 µM
- TGI (OVCAR-4 ovarian): > 100 µM
- GI50 (OVCAR-5 ovarian): > 100 µM
- TGI (OVCAR-5 ovarian): > 100 µM
- GI50 (OVCAR-8 ovarian): 27.3 µM
- TGI (OVCAR-8 ovarian): > 100 µM
- GI50 (PC-3 prostate): 11.7 µM
- TGI (PC-3 prostate): 48.1 µM
- GI50 (RPMI-8226 leukemia): 3.34 µM
- TGI (RPMI-8226 leukemia): 30.5 µM
- GI50 (SF-268 CNS): 19.2 µM
- TGI (SF-268 CNS): 53 µM
- GI50 (SF-295 CNS): 5.62 µM
- TGI (SF-295 CNS): 23.8 µM
- GI50 (SF-539 CNS): 12.1 µM
- TGI (SF-539 CNS): 28.6 µM
- GI50 (SK-MEL-2 melanoma): 80 µM
- TGI (SK-MEL-2 melanoma): > 100 µM
- GI50 (SK-MEL-28 melanoma): 17 µM
- TGI (SK-MEL-28 melanoma): 49.6 µM
- GI50 (SK-MEL-5 melanoma): 13.7 µM
- TGI (SK-MEL-5 melanoma): 28.1 µM
- GI50 (SK-OV-3 ovarian): 41 µM
- TGI (SK-OV-3 ovarian): > 100 µM
- GI50 (SN12C renal): 16.5 µM
- TGI (SN12C renal): 47.3 µM
- GI50 (SNB-19 CNS): 11.5 µM
- TGI (SNB-19 CNS): > 100 µM
- GI50 (SNB-75 CNS): 26.5 µM
- TGI (SNB-75 CNS): > 100 µM
- GI50 (SW-620 colon): 17.1 µM
- TGI (SW-620 colon): 58.3 µM
- GI50 (T-47D breast): 40.5 µM
- TGI (T-47D breast): > 100 µM
- GI50 (TK-10 renal): 15.8 µM
- TGI (TK-10 renal): 43.8 µM
- GI50 (U251 CNS): 22.7 µM
- TGI (U251 CNS): 71.8 µM
- GI50 (UACC-257 melanoma): 33 µM
- TGI (UACC-257 melanoma): > 100 µM
- GI50 (UACC-62 melanoma): 4.56 µM
- TGI (UACC-62 melanoma): 18.6 µM
- GI50 (UO-31 renal): 51.8 µM
- TGI (UO-31 renal): > 100 µM
